Results as given in ChEMBL document CHEMBL6071160, “Identification of a novel 10-hydroxyevodiamine prodrug as a potent topoisomerase inhibitor with improved aqueous solubility for treatment of hepatocellular carcinoma” (Eur J Med Chem, 2024).
pIC50: −log10 of the molar value. Active and inactive are the calls of the source. The rule behind the calls is not given here.

What was measured:
Huh-7 [1] = test: Antiproliferative activity against human Huh-7 cells assessed as inhibition of cell proliferation incubated for 72 hrs by MTT assay; assay type: functional, cell-based; details: Huh-7, 72 h
SK-HEP1 [2] = test: Antiproliferative activity against human SK-HEP1 cells assessed as inhibition of cell proliferation incubated for 72 hrs by MTT assay; assay type: functional, cell-based; details: SK-HEP1, 72 h
[3] = Antiproliferative activity against human Doxorubicin-resistant SMMC-7721 cell assessed as inhibition of cell proliferation incubated for 72 hrs by MTT assay; assay type: functional, cell-based; details: SMMC-7721, 72 h
[4] = target: DNA topoisomerase II (Homo sapiens) (UniProt P11388+Q02880); test: Inhibition of DNA topoisomerase 2 (unknown origin) assessed as relaxation of supercoiled plasmid pBR322 DNA at 25 to 100 uM incubated for 15 mins measured after 30 mins addition of ethidium bromide by agarose gel electrophoresis; assay type: protein assay; details: dose 25-100 µM
[5] = Chemical stability of compound at pH 7.4 assessed as residual rate measured after 2 days; assay type: physicochemical; details: buffer, time 2 day, read-out: Stability
[6] = Cmax in Sprague-Dawley rat at 10 mg/kg, ip measured upto 24 hrs by LC-MS/MS analysis; assay type: ADME, organism-based; details: in vivo
[7] = AUC (0 to t) in Sprague-Dawley rat at 10 mg/kg, ip measured upto 24 hrs by LC-MS/MS analysis; assay type: ADME, organism-based; details: in vivo
[8] = MRT (0 to t) in Sprague-Dawley rat at 10 mg/kg, ip measured upto 24 hrs by LC-MS/MS analysis; assay type: ADME, organism-based; details: in vivo
Huh-7 [9] = test: In vivo antitumor activity against human Huh-7 cells subcutaneously injected into BALB/C nude mouse assessed as tumor growth inhibition at 10 mg/kg, ip administered once daily measured after 14 days; assay type: functional; details: Huh-7, 336 h, time 14 day, read-out: TGI
Huh-7 [10] = test: Induction of cell cycle arrest in human Huh-7 cells assessed as accumulation of cells at G2 phase 80 nM measured after 24 hrs by flow cytometric assay (reference value: 13.66%); assay type: functional
Huh-7 [11] = test: Induction of cell cycle arrest in human Huh-7 cells assessed as accumulation of cells at S phase 80 nM measured after 24 hrs by flow cytometric assay (reference value: 23.33%); assay type: functional
Huh-7 [12] = test: Induction of cell cycle arrest in human Huh-7 cells assessed as accumulation of cells at S phase 20 nM measured after 24 hrs by flow cytometric assay (reference value: 23.33%); assay type: functional
Huh-7 [13] = test: Induction of cell cycle arrest in human Huh-7 cells assessed as accumulation of cells at G2 phase 40 nM measured after 24 hrs by flow cytometric assay (reference value: 13.66%); assay type: functional
SK-HEP1 [14] = test: Induction of cell cycle arrest in human SK-HEP1 cells assessed as accumulation of cells at S phase 40 nM measured after 24 hrs by flow cytometric assay (reference value: 30.04%); assay type: functional
Huh-7 [15] = test: Induction of apoptosis in human Huh-7 cells assessed as viable cells at 80 nM measured after 24 hrs by Annexin-V-FITC/PI analysis (reference value: 97.46%); assay type: functional; details: read-out: Activity
Huh-7 [16] = test: Induction of apoptosis in human Huh-7 cells assessed as early apoptotic cells at 80 nM measured after 24 hrs by Annexin-V-FITC/PI analysis (reference value: 1.04%); assay type: functional
Huh-7 [17] = test: Induction of apoptosis in human Huh-7 cells assessed as necrotic cells at 80 nM measured after 24 hrs by Annexin-V-FITC/PI analysis (reference value: 0.27%); assay type: functional
Huh-7 [18] = test: Induction of apoptosis in human Huh-7 cells assessed as late apoptotic cells at 20 nM measured after 24 hrs by Annexin-V-FITC/PI analysis (reference value: 1.23%); assay type: functional
Huh-7 [19] = test: Induction of apoptosis in human Huh-7 cells assessed as necrotic cells at 20 nM measured after 24 hrs by Annexin-V-FITC/PI analysis (reference value: 0.27%); assay type: functional
Huh-7 [20] = test: Induction of apoptosis in human Huh-7 cells assessed as viable cells at 40 nM measured after 24 hrs by Annexin-V-FITC/PI analysis (reference value: 97.46%); assay type: functional; details: read-out: Activity
Huh-7 [21] = test: Induction of apoptosis in human Huh-7 cells assessed as necrotic cells at 40 nM measured after 24 hrs by Annexin-V-FITC/PI analysis (reference value: 0.27%); assay type: functional
SK-HEP1 [22] = test: Induction of apoptosis in human SK-HEP1 cells assessed as early apoptotic cells at 80 nM measured after 24 hrs by Annexin-V-FITC/PI analysis (reference value: 1.45%); assay type: functional
SK-HEP1 [23] = test: Induction of apoptosis in human SK-HEP1 cells assessed as early apoptotic cells at 20 nM measured after 24 hrs by Annexin-V-FITC/PI analysis (reference value: 1.45%); assay type: functional
Huh-7 [24] = test: Induction of apoptosis in human Huh-7 cells assessed as loss of mitochondrial membrane potential by measuring JC-1 stained cells at 80 nM measured after 24 hrs by JC-1 staining based flow cytometry (reference value: 2.27%); assay type: functional
SK-HEP1 [25] = test: Induction of apoptosis in human SK-HEP1 cells assessed as loss of mitochondrial membrane potential by measuring JC-1 stained cells at 80 nM measured after 24 hrs by JC-1 staining based flow cytometry (reference value: 0.49%); assay type: functional
SK-HEP1 [26] = test: Induction of apoptosis in human SK-HEP1 cells assessed as ROS generation by measuring DCFH2-DA stained cells at 20 nM measured after 24 hrs […] (reference value: 0.14%); assay type: functional
Huh-7 [27] = test: Inhibition of cell migration in human Huh-7 cells at 20 nM measured for 24 hrs by scratch wound healing assay; assay type: functional, cell-based
Huh-7 [28] = test: Inhibition of cell invasion in human Huh-7 cells assessed as decrease in number of cells migration into lower compartment at 20 nM measured after 24 hrs by transwell assay; assay type: functional, cell-based
SK-HEP1 [29] = test: Inhibition of cell migration in human SK-HEP1 cells at 40 nM measured for 24 hrs by scratch wound healing assay; assay type: functional, cell-based
SK-HEP1 [30] = test: Inhibition of cell migration in human SK-HEP1 cells at 10 nM measured for 24 hrs by scratch wound healing assay; assay type: functional, cell-based
SK-HEP1 [31] = test: Inhibition of cell invasion in human SK-HEP1 cells assessed as decrease in number of cells migration into lower compartment at 40 nM measured after 24 hrs by transwell assay; assay type: functional, cell-based
SK-HEP1 [32] = test: Inhibition of cell invasion in human SK-HEP1 cells assessed as decrease in number of cells migration into lower compartment at 10 nM measured after 24 hrs by transwell assay; assay type: functional, cell-based
SK-HEP1 [33] = test: Inhibition of cell invasion in human SK-HEP1 cells assessed as decrease in number of cells migration into lower compartment at 20 nM measured after 24 hrs by transwell assay; assay type: functional, cell-based
[34] = Toxicity in BALB/c nude mouse subcutaneously injected with human Huh-7 cells assessed as changes in liver tissue at 10 mg/kg, ip administered once daily measured after 14 days by H and E staining based assay; assay type: organism-based; details: in vivo, 336 h, time 14 day
[35] = Toxicity in BALB/c nude mouse subcutaneously injected with human Huh-7 cells assessed as change in body weight at 10 to 20 mg/kg, ip administered once daily measured after 14 days; assay type: organism-based; details: in vivo, 336 h, dose 10-20 mg/kg, time 14 day

For `C[N+](C)(C)CCC(=O)Oc1ccc2[nH]c3c(c2c1)CCN1C(=O)c2cc(F)cc(F)c2N(c2cccc(F)c2)C31.[I-]` (stereo not given), the pIC50 (Huh-7 [1]) was 7.40, the pIC50 (SK-HEP1 [2]) was 7.52 and the pIC50 [3] was 6.96. The inhibition [4] was “Active”, the remaining at 48 h [5] was 43.9% and the Cmax [6] was 240 ng/mL. For the same compound, the AUC(0-t) at 24 h [7] was 1540 ng·h/mL, the MRT last at 24 h [8] was 4.64 h and the inhibition in vivo at 10 mg/kg (Huh-7 [9]) was 83.3%. It also gave an Activity (Huh-7 [10]) of 86.5%, an Activity (Huh-7 [11]) of 6.71% and an Activity (Huh-7 [12]) of 27.35%. For the same compound, the Activity (Huh-7 [13]) was 11.72%, the Activity (SK-HEP1 [14]) was 31.15% and the viability at 0.08 µM (Huh-7 [15]) was 79.7%. It also gave an Activity (Huh-7 [16]) of 7.8%, an Activity (Huh-7 [17]) of 0.83% and an Activity (Huh-7 [18]) of 2.03%. The Activity (Huh-7 [19]) was 0.11%, the viability at 0.04 µM (Huh-7 [20]) was 94.2% and the Activity (Huh-7 [21]) was 0.04%. It also gave an Activity (SK-HEP1 [22]) of 22.57%, an Activity (SK-HEP1 [23]) of 1.59% and an Activity (Huh-7 [24]) of 12.52%. For the same compound, the Activity (SK-HEP1 [25]) was 18.32%, the Activity (SK-HEP1 [26]) was 0.47% and the inhibition (Huh-7 [27]) was “Active”. For the same compound, the inhibition (Huh-7 [28]) was “Active”, the inhibition (SK-HEP1 [29]) was “Active” and the inhibition (SK-HEP1 [30]) was “Active”. For the same compound, the inhibition (SK-HEP1 [31]) was “Active”, the inhibition (SK-HEP1 [32]) was “Active” and the inhibition (SK-HEP1 [33]) was “Active”. For the same compound, the Activity [34] was “Non-Toxic” and the Activity [35] was “Non-Toxic”.
